For data set [1], the target named is SARS-CoV-2 main protease (Mpro) (Severe acute respiratory syndrome coronavirus 2, UniProt P0DTD1). Kind of data set: biochemical.
Data set [2] deals with SARS-CoV-2 (strain USA-WA1/2020). Kind of data set: microbe, parasite or virus in culture. The format is cell-based.
Data set [3] deals with HeLa-ACE2 cells. Kind of data set: cells. Particulars: Table 2, total cell count in infected plates. The format is cell-based.
Data set [4] is described as follows: Uninfected host cell cytotoxicity counter screen. The format is cell-based. As to conditions: human. On the procedure: Uninfected host cell cytotoxicity counter screen: HeLa-ACE2 cells were maintained as described for the infection assay and seeded in the assay-ready plates at 400 cells/well. Plates were incubated for 24 hours at 37° C. 5% CO2. To assess cell viability, the Image-iT DEAD green reagent was used according to manufacturer instructions. Cells were fixed with 4% paraformaldehyde, and counterstained with DAPI. Fixed cells are imaged as described above.
Viral replication data analysis: Data from the primary screen and the host cell cytotoxicity screen are normalized to neutral (DMSO) […] inhibitor controls (2.5 μM Remdesivir for antiviral effect and 10 μM puromycin for infected host cell toxicity). For the uninfected host cell cytotoxicity counter-screen 40 μM puromycin is used as the positive control. Concentration response experiments will be tested in triplicate.

Setting [5] is: Severe acute respiratory syndrome coronavirus 2, HeLa-ACE2, read-out: CoV-2 HeLa EC50, Table 2, SARS-CoV-2 infected HeLa-ACE2 cells.
[6] abbreviates: Severe acute respiratory syndrome coronavirus 2, Table 2, SARS-CoV-2 infected HeLa-ACE2 cells, read-out: CoV-2 HeLa EC50.
[7] abbreviates: Table 2, uninfected cells, 24 hours, read-out: Uninfected HeLa-ACE2 CC50.

Molecules are shown by their SMILES. Like-named read-outs stand apart in the source and are kept apart here. Some results are limits rather than exact numbers.

Turning to `O=C(c1cnccn1)N1CCN(C(c2ccccc2)c2ccccc2)CC1` [AA-579, (4-benzhydrylpiperazin-1-yl)(pyrazin-2-yl)methanone], the IC50 (usually the concentration that inhibits the measured activity by half) in data set [1] (Table 2, read-out: Enzyme IC50) stood at 7700 nM. The EC50 in data set [2] (setting [5]) and in data set [3] was above 9610 nM throughout. In addition, the CC50 (as a rule, the concentration that lowers cell viability or growth by half) at 24 h in data set [4] is above 39800 nM.
On to `COc1cncc(C(=O)N2CCN(C(c3ccccc3)c3ccccc3)CC2)c1` [AA-589, (4-benzhydrylpiperazin-1-yl)(5-methoxypyridin-3-yl)methanone], for which the IC50 in data set [1] (Table 2, read-out: Enzyme IC50) amounted to 480 nM. Also, the EC50 – broadly, the midpoint of the concentration-response curve – in data set [2] (setting [6]) was 1430 nM; in data set [3], above 9610 nM. The cytotoxic concentration (CC50) at 24 h in data set [4] was above 39800 nM.
Take `O=C(c1cncc(C(F)(F)F)c1)N1CCN(C(c2ccccc2)c2ccccc2)CC1` [AA-590, (4-benzhydrylpiperazin-1-yl)(5-(trifluoromethyl)pyridin-3-yl)methanone]: the IC50 in data set [1] (Table 2, read-out: Enzyme IC50) was found to be 990 nM. The results for the EC50 in data set [2] (setting [6]) and in data set [3] were 4900 nM and above 9610 nM, respectively. This compound had a CC50 at 24 h in data set [4] above 39800 nM.
For `O=C(c1cncc(Cl)c1)N1CCN(C(c2ccccc2)c2ccccc2)CC1` [AA-591, (4-benzhydrylpiperazin-1-yl)(5-chloropyridin-3-yl)methanone], the IC50 in data set [1] (Table 2, read-out: Enzyme IC50) was 300 nM. In addition, the EC50 in data set [2] (setting [6]) is 890 nM; in data set [3] it was above 9610 nM. In data set [4], this compound came in with a CC50 at 24 h above 39800 nM.
As to `O=C(c1cncc(F)c1)N1CCN(C(c2ccccc2)c2ccccc2)CC1` [AA-592, (4-benzhydrylpiperazin-1-yl)(5-fluoropyridin-3-yl)methanone], in data set [1] (Table 2, read-out: Enzyme IC50), the IC50 came to 970 nM. Moreover, the EC50 in data set [2] (setting [6]) is 2720 nM; in data set [3], above 9610 nM. The CC50 at 24 h in data set [4] is above 39800 nM.
In data set [1] (Enzyme IC50, Table 2), `O=C(c1cccnc1)N1C2CCC1CN(C(c1ccccc1)c1ccccc1)C2` [AA-597, (3-benzhydryl-3,8-diazabicyclo[3.2.1]octan-8-yl)(pyridin-3-yl)methanone] registered an IC50 of 3900 nM. Besides, the EC50 in data set [2] (setting [5]) and in data set [3] was above 9610 nM in each case. Also, the CC50 at 24 h in data set [4] (setting [7]) was above 39800 nM.
As for `O=C(c1cccnc1)N1CCN(C(c2ccc(F)cc2)c2ccc(F)cc2)CC1` [AA-598, (4-(bis(4-fluorophenyl)methyl)piperazin-1-yl)(yridine-3-yl)methanone], the IC50 in data set [1] (Table 2, read-out: Enzyme IC50) turned out to be 1900 nM. The EC50 in data set [2] (setting [5]) and in data set [3] was above 9610 nM throughout. The compound further had a CC50 at 24 h in data set [4] above 39800 nM.
In the case of `O=C(c1cncc(O)c1)N1CCN(C(c2ccccc2)c2ccccc2)CC1` [AA-599, (4-benzhydrylpiperazin-1-yl)(5-hydroxypyridin-3-yl)methanone], the IC50 in data set [1] (Table 2, read-out: Enzyme IC50) is 1600 nM. The EC50 in data set [2] (setting [6]) was 6030 nM; in data set [3], above 9610 nM. Besides, the CC50 at 24 h in data set [4] is above 39800 nM.
The matching figures for `O=C(c1cnccc1Cl)N1CCN(C(c2ccccc2)c2ccccc2)CC1` [AA-605, (4-benzhydrylpiperazin-1-yl)(4-chloropyridin-3-yl)methanone]: 1300 nM, 3030 nM, 7160 nM and above 39800 nM.
Consider `O=C(c1cc(Br)cnc1Cl)N1CCN(C(c2ccccc2)c2ccccc2)CC1` [AA-606, (4-benzhydrylpiperazin-1-yl)(5-bromo-2-chloropyridin-3-yl)methanone], for which the IC50 in data set [1] (Table 2, read-out: Enzyme IC50) was above 10000 nM. Also, the EC50 in data set [2] (setting [5]) and in data set [3] was above 9610 nM in each case. Moreover, the CC50 at 24 h in data set [4] is above 39800 nM.
`Cc1ccncc1C(=O)N1CCN(C(c2ccccc2)c2ccccc2)CC1` [AA-611, (4-benzhydrylpiperazin-1-yl)(4-methylpyridin-3-yl)methanone]: the IC50 in data set [1] (Table 2, read-out: Enzyme IC50) was found to be 2500 nM. Further, the EC50 in data set [2] (setting [5]) and in data set [3] was above 9610 nM in each case. Further, the CC50 at 24 h in data set [4] was above 39800 nM.
`Cc1cncc(C(=O)N2CCC(N(c3ccccc3)c3ccccc3)CC2)c1` [AA-613, (4-(diphenylamino)piperidin-1-yl)(5-methylpyridin-3-yl)methanone]: in data set [1] (Table 2, read-out: Enzyme IC50), the IC50 turned out to be 820 nM. The EC50 in data set [2] (setting [5]) and in data set [3] was above 9610 nM in each case. The same compound gave a CC50 at 24 h in data set [4] above 39800 nM.
For `Cc1cncc(C(=O)N2CCN(C(c3ccccc3)c3ccc(F)cc3)CC2)c1` (stereo not drawn) [AA-620, (4-((4-fluorophenyl)(phenyl)methyl)piperazin-1-yl)(5-methylpyridin-3-yl)methanone], the IC50 in data set [1] (Table 2, read-out: Enzyme IC50) was 260 nM. Moreover, the EC50 turned out to be 717 nM in data set [2] (setting [6]) and 841 nM in data set [3]. In data set [4], this compound yielded a CC50 at 24 h above 39800 nM.
Regarding `CC(=O)Nc1cncc(C(=O)N2CCN(C(c3ccccc3)c3ccccc3)CC2)c1` [AA-624, N-(5-(4-benzhydrylpiperazine-1-carbonyl)pyridin-3-yl)acetamide], the IC50 in data set [1] (Table 2, read-out: Enzyme IC50) came out at 890 nM. Further, the EC50 is 2620 nM in data set [2] (setting [6]) and above 9610 nM in data set [3]. This compound came in with a cytotoxic concentration (CC50) at 24 h in data set [4] above 39800 nM.
Turning to `Cc1cncc(C(=O)N2CC3CCC(C2)N3C(c2cccc(F)c2)c2cccc(F)c2)c1` [AA-625, (8-(bis(3-fluorophenyl)methyl)-3,8-diazabicyclo[3.2.1]octan-3-yl)(5-methylpyridin-3-yl)methanone], the IC50 in data set [1] (Enzyme IC50, Table 2) was 33 nM; in data set [1] (Enzyme IC50, Table 3, select example compounds against mpro) it was 4 nM. Also, the EC50 in data set [2] (Severe acute respiratory syndrome coronavirus 2, HeLa, read-out: CoV-2 HeLa EC50, Table 3) turned out to be 72 nM; in data set [2] (setting [5]), 72 nM; in data set [3], 85 nM. Also, the CC50 at 24 h in data set [4] (setting [7]) was 26500 nM.
The compound `CC(=O)Nc1cccc(C(c2ccccc2)N2C3CCC2CN(C(=O)c2cncc(C)c2)C3)c1` (stereo not drawn) [AA-627, N-(3-((3-(5-methylnicotinoyl)-3,8-diazabicyclo[3.2.1]octan-8-yl)(phenyl)methyl)phenyl)acetamide] showed an IC50 in data set [1] (Enzyme IC50, Table 2) of 48 nM. For the same compound, the EC50 is 3000 nM in data set [2] (setting [5]) and above 9610 nM in data set [3]. The CC50 at 24 h in data set [4] (setting [7]) was above 39800 nM.
For the compound `CNC(=O)c1cccc(C(c2ccccc2)N2C3CCC2CN(C(=O)c2cncc(C)c2)C3)c1` (stereo not drawn) [AA-630, N-methyl-3-((3-(5-methylnicotinoyl)-3,8-diazabicyclo[3.2.1]octan-8-yl)(phenyl)methyl)benzamide], in data set [1] (Enzyme IC50, Table 2), half-maximal inhibition (IC50) was put at 1370 nM. The EC50 amounted to 7730 nM in data set [2] (setting [5]) and 8560 nM in data set [3]. For the same compound, the CC50 at 24 h in data set [4] (setting [7]) was above 39800 nM.
Consider `CC(=O)Nc1cncc(C(=O)N2CC3CCC(C2)N3C(c2ccccc2)c2ccccc2)c1` [AA-633, N-(5-(8-benzhydryl-3,8-diazabicyclo[3.2.1]octane-3-carbonyl)pyridin-3-yl)acetamide], for which, in data set [1] (Enzyme IC50, Table 2), the IC50 is 640 nM. The EC50 was 1580 nM in data set [2] (setting [5]) and 2770 nM in data set [3]. In addition, the CC50 at 24 h in data set [4] (setting [7]) is above 39800 nM.
Turning to `Cc1cncc(C(=O)N2CCN(C(c3ccccc3)c3ccccc3)CC2=O)c1` [AA-637, 4-benzhydryl-1-(5-methylnicotinoyl)piperazin-2-one], the IC50 in data set [1] (Table 2, read-out: Enzyme IC50) was found to be 90 nM. For the same compound, the EC50 in data set [2] (setting [5]) and in data set [3] was above 9610 nM each time. Further, in data set [4], the CC50 at 24 h is above 39800 nM.
Regarding `Cc1cnc(F)c(C(=O)N2CC3CCC(C2)N3C(c2ccccc2)c2ccccc2)c1` [AA-638, (8-benzhydryl-3,8-diazabicyclo[3.2.1]octan-3-yl)(2-fluoro-5-methylpyridin-3-yl)methanone], in data set [1] (Enzyme IC50, Table 2), the IC50 was determined as 220 nM. For the same compound, the values for the EC50 in data set [2] (setting [5]) and in data set [3] were 893 nM and 711 nM, respectively. Further, the CC50 at 24 h in data set [4] (setting [7]) is above 39800 nM.
In turn, `O=C(c1cncc2nc[nH]c12)N1CC2CCC(C1)N2C(c1ccccc1)c1ccccc1` [AA-642, (8-benzhydryl-3,8-diazabicyclo[3.2.1]octan-3-yl)(1H-imidazo[4,5-c]pyridin-7-yl)methanone] came in with an IC50 in data set [1] (Enzyme IC50, Table 2) of 210 nM. Besides, the EC50 is 1050 nM in data set [2] (setting [5]) and 3240 nM in data set [3]. For the same compound, the CC50 at 24 h in data set [4] (setting [7]) was above 39800 nM.
Turning to `O=C(c1cncc2cc[nH]c12)N1CC2CCC(C1)N2C(c1ccccc1)c1ccccc1` [AA-643, (8-benzhydryl-3,8-diazabicyclo[3.2.1]octan-3-yl)(1H-pyrrolo[3,2-c]pyridin-7-yl)methanone], in data set [1] (Enzyme IC50, Table 2), the IC50 stood at 58 nM. In addition, the figures for the EC50 in data set [2] (setting [5]) and in data set [3] were 348 nM and 1050 nM, respectively. Moreover, the CC50 at 24 h in data set [4] (setting [7]) is 21500 nM.
Take `Cc1cncc(C(=O)N2CC3CCC(C2)N3C(c2ccccc2)c2ccccc2)n1` [AA-658, (8-benzhydryl-3,8-diazabicyclo[3.2.1]octan-3-yl)-(6-methylpyrazin-2-yl)methanone]: the IC50 in data set [1] (Enzyme IC50, Table 2) turned out to be 800 nM. Also, the EC50 is 1950 nM in data set [2] (setting [5]) and above 9610 nM in data set [3]. Also, the CC50 at 24 h in data set [4] (setting [7]) was above 39800 nM.
`O=C(c1cccnc1)N1CCN(C(c2ccccc2)c2cccnc2)CC1` (stereo not drawn) [MKP-1183, 1-[phenyl(pyridin-3-yl)methyl]-4-(pyridine-3-carbonyl)piperazine]: in data set [1] (Table 2, read-out: Enzyme IC50), the IC50 worked out at 1700 nM. Moreover, the EC50 in data set [2] (setting [6]) was 4340 nM; in data set [3] it was above 9610 nM. For the same compound, the CC50 at 24 h in data set [4] is above 39800 nM.
As to `O=C(c1cncc(F)c1)N1CCN(C(c2ccccc2)c2cccnc2)CC1` (stereo not drawn) [MKP-1192, 1-(5-fluoropyridine-3-carbonyl)-4-[phenyl(pyridin-3-yl)methyl]piperazine], the IC50 in data set [1] (Table 2, read-out: Enzyme IC50) came out at 1930 nM. Besides, the half-maximal effective concentration (EC50) was 4830 nM in data set [2] (setting [6]) and above 9610 nM in data set [3]. For the same compound, the CC50 at 24 h in data set [4] is above 39800 nM.

(Values after patent publication US20250084091A1, “INHIBITORS OF SARS-COV-2” (The Texas A&M University System, priority 2021, published 2025).)
